These are literature values, as cited in paper PMC4287394 (Clinical cancer research : an official journal of the …, 2014).

The conditions of the data set: Phase I; cited from earlier work.

Regarding `Nc1cc(C(F)(F)F)c(-c2cc(N3CCOCC3)nc(N3CCOCC3)n2)cn1` [BKM120], the “Observed DLTs” value was “rash, hyperglycemia and mood alterations”.

Regarding `C=CCN(/C=C1/C(=O)O[C@H](COC)[C@@]2(C)C1=C(O)C(=O)C1=C2[C@H](OC(C)=O)C[C@]2(C)C(=O)CC[C@@H]12)CC=C` [PX-866], the Hyperglycaemia result is “minimal hyperglycaemia” and the Patients with rash result was “none”.

For `COc1ccc(Cl)c(Nc2nc3ccccc3nc2NS(=O)(=O)c2cccc(NC(=O)C(C)(C)N)c2)c1` [SAR245408], the Hyperglycaemia entry is given as “minimal hyperglycaemia” and the “Patients with rash (all grades)” value was 26%.
